Results: patent US7879829B2, “19-nor-vitamin D analogs with 1,2-dihydrofuran ring” (Wisconsin Alumni Research Foundation, priority 2008, dated 2011)
Entries after “also recorded” stand apart in the source; their conditions may differ. Like-named read-outs stand apart in the source and are kept apart here.

Tests used:
[1] = tested on: 24-hydroxylase (24 Ohase) gene promoter in ROS 17/2.8 (bone) cells; assay: In vitro transcription assay (24-hydroxylase promoter luciferase reporter); format: cell-based; settings: FIG. 3; for EC50: ROS 17/2.8 cells, 24-hydroxylase promoter luciferase, 16 h, read-out: EC50, transcriptional activity in bone cells; for transcription of the 24-hydroxylase gene, times less potent than 1,25-(OH)2D3: relative to 1,25-(OH)2D3
Description: In vitro Transcription Assay
Transcription activity was measured in ROS 17/2.8 (bone) cells that were stably transfected with a 24-hydroxylase (24 Ohase) gene promoter upstream of a luciferase reporter gene (Arbour et al., 1998). Cells were given a range of doses. Sixteen hours after dosing the cells were harvested and luciferase activities were measured using a luminometer.
RLU=relative luciferase units.

[2] = tested on: bone calcium mobilization; assay: Bone calcium mobilization (serum calcium); format: in vivo, Sprague-Dawley rats; settings: low calcium diet (0.02%), FIG. 4; for bone calcium mobilization activity: ip
Description: (§1) Intestinal Calcium Transport and Bone Calcium Mobilization Male, weanling Sprague-Dawley rats were placed on Diet 11 (0.47% Ca) diet +AEK oil for one week followed by Diet 11 (0.02% Ca) +AEK oil for 3 weeks. The rats were then switched to a diet containing 0.47% Ca for one week followed by two weeks on a diet containing 0.02% Ca. Dose administration began during the last week on 0.02% calcium diet. Four consecutive ip doses were given approximately 24 hours apart. Twenty-four hours after the last dose, blood was collected from the severed neck and the concentration of serum calcium determined as a measure of bone calcium mobilization. The first 10 cm of the intestine was also collected for intestinal calcium transport analysis using the everted gut sac method.

[3] = tested on: HL-60 cells; assay: HL-60 differentiation (nitro blue tetrazolium reduction); format: cell-based, human; settings: for EC50: HL-60 cells, 4 days, read-out: EC50, HL60 differentiation
Description: The study drugs were dissolved in ethanol and the concentrations determined using UV spectrophotometry. Serial dilutions were prepared so that a range of drug concentrations could be tested without changing the final concentration of ethanol (≦0.2%) present in the cell cultures.
Human promyelocytic leukemia (HL60) cells were grown in RPMI-1640 medium containing 10% fetal bovine serum. The cells were incubated at 37° C. in the presence of 5% CO2.
HL60 cells were plated at 1.2×10^5 cells/ml. Eighteen hours after plating, cells in duplicate were treated with drug. Four days later, the cells were harvested and a nitro blue tetrazolium reduction assay was performed (Collins et al., 1979; J. Exp. Med. 149:969-974). The percentage of differentiated cells was determined by counting a total of 200 cells and recording the number that contained intracellular black-blue formazan deposits. Verification of differentiation to monocytic cells was determined by measuring phagocytic activity (data not shown).

[4] = tested on: intestinal calcium transport; assay: Intestinal calcium transport (everted gut sac method); format: in vivo, Sprague-Dawley rats; settings: FIG. 5
Description: as §1

[5] = target: T1, full-length recombinant rat vitamin D receptor (Rattus norvegicus, UniProt P13053); assay: Vitamin D receptor competitive binding with [3H]-1,25-(OH)2D3
T1 construct: Full-length recombinant rat receptor was expressed in E. coli; histidine tag (C); made in house; host or cells: E. coli BL21 (DE3) Codon Plus RIL
T1 sequence (P13053 1-423): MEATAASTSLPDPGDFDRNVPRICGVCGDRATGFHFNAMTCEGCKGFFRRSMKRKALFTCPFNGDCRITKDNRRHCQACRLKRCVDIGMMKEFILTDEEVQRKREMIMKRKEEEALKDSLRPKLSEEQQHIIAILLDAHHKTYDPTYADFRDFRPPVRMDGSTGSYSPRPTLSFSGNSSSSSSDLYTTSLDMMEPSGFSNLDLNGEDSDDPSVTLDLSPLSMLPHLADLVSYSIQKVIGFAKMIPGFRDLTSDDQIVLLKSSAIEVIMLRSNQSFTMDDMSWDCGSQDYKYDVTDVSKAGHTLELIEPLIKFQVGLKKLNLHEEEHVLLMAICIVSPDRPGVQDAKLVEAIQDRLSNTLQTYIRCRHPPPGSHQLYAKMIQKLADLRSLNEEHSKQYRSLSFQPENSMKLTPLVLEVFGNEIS
From the text: Vitamin D Receptor Binding
Full-length recombinant rat receptor was expressed in E. coli BL2 1 (DE3) Codon Plus RIL cells and purified to homogeneity using two different column chromatography systems. The first system was a nickel affinity resin that utilizes the C-terminal histidine tag on this protein. The protein that was eluted from this resin was further purified using ion exchange chromatography (S-Sepharose Fast Flow). Aliquots of the purified protein were quick frozen in liquid nitrogen and stored at −80° C. until use. For use in binding assays, the protein was diluted in TEDK50 (50 mM Tris, 1.5 mM EDTA, pH 7.4, 5 mM DTT, 150 mM KCl) with 0.1% Chaps detergent. The receptor protein and ligand concentration were optimized such that no more than 20% of the added radiolabeled ligand was bound to the receptor.
Radiolabeled and unlabeled ligands were added to 100 mcl of the diluted protein at a final ethanol concentration of ≦10%, mixed and incubated overnight on ice to reach binding equilibrium. The following day, 100 mcl of hydroxylapatite slurry (50%) was added to each tube and mixed at 10-minute intervals for 30 minutes. The hydroxylapaptite was collected by centrifugation and then washed three times with Tris-EDTA buffer (50 mM Tris, 1.5 mM EDTA, pH 7.4) containing 0.5% Titron X-100. After the final wash, the pellets were transferred to scintillation vials containing 4 ml of Biosafe II scintillation cocktail, mixed and placed in a scintillation counter. Total binding was determined from the tubes containing only radiolabeled ligand.

Ki ([5]; full-length recombinant rat vitamin D receptor, FIG. 1, read-out: Ki, competition with [3H]-1,25-(OH)2D3 for binding to VDR) | VDR affinity, times less potent than 1,25-(OH)2D3 ([5]; relative to 1,25-(OH)2D3, FIG. 1) | reduced VDR binding affinity ([5]; relative to native hormone) | EC50 ([3]; Homo sapiens, 96 h, FIG. 2) | SMILES | EC50 [1] | bone calcium mobilization activity ([2]; 260 pmol/day) | serum calcium levels ([2]; all the dosages tested) | EC50 ([3]; FIG. 2) | intestinal calcium transport activity ([4]; 780 pmol/day for 4 consecutive days, compared with 1,25-(OH)2D3 at 780 pmol/day) | intestinal calcium transport activity, overall compared with 1,25-(OH)2D3 ([4]; in vivo, no dose stated) | transcription of the 24-hydroxylase gene, times less potent than 1,25-(OH)2D3 [1] | transcription of the 24-hydroxylase gene, times less potent than 1,25-(OH)2D3 ([1]; listed as Ia) | bone calcium mobilization activity ([2]; 7,020 pmol/day for 4 consecutive days) | HL-60 differentiation, times less potent than 1,25-(OH)2D3 ([3]; relative to 1,25-(OH)2D3, FIG. 2) | reduced cell differentiation potency ([3]; relative to native hormone)
 |  |  |  | C=C1/C(=C\C=C2/CCC[C@]3(C)[C@@H]([C@H](C)CCCC(C)(C)O)CC[C@@H]23)C[C@@H](O)C[C@@H]1O [1,25-(OH)2D3, 1α,25-dihydroxyvitamin D3, reference compound] | 0.2 nM | significant activity | increased serum calcium levels at all the dosages tested | 3 nM |  |  |  |  |  |  | 
0.6 nM | ~10 times | about 1 log | 30 nM | C[C@H](CCCC(C)(C)O)C1CCC2/C(=C/C=C3/C[C@@H](O)C4=CCO[C@@H]4C3)CCC[C@@]21C (stereo partly shown) [A-REV5, 1,2-dihydrofuran-25-hydroxy-19-nor-vitamin D3] | 8 nM |  |  |  | almost the same activity as 1,25-(OH)2D3 | promotes intestinal calcium transport in a dose dependent manner; also recorded: only slightly lower potency in vivo | about 40 times | 40 times | no bone calcium mobilization activity; also recorded: did not result in any mobilization of bone calcium | ~10 times | 1 log
